Drawing on publication PMC2248166, “Quantitative peptide binding motifs for 19 human and mouse MHC class I molecules derived using positional scanning combinatorial peptide libraries” (Immunome Research, 2008), this text covers IC50 for 21 compounds.

Where a SMILES comes first, the peptide text is derived from it.

For this assay, the target named is HLA B*1501 (Homo sapiens, UniProt P01889, A329T/A93T/A95T/C349S/D201E/D98Y/E187L/E204Q/E69M/E70A/K202T/N87E/Q94N/R155S/R180W/S121R/S35A/S48A/V306I/V36M/Y140S/Y91S). Put plainly: biochemical. The format is binding.

Compound `CSCC[C@H](N)C(=O)N[C@@H](CC(C)C)C(=O)N[C@@H](CC(N)=O)C(=O)N[C@H](C(=O)N[C@@H](Cc1ccc(O)cc1)C(=O)NCC(=O)N[C@@H](CCC(=O)O)C(=O)NCC(=O)N[C@@H](Cc1ccccc1)C(=O)O)[C@@H](C)O` [3102.0822] (H-MLNTYGEGF-OH) had an IC50 of 2.3 nM. Turning to `CC(C)C[C@H](NC(=O)[C@@H](NC(=O)[C@H](CCCCN)NC(=O)[C@H](CCCCN)NC(=O)[C@H](C)NC(=O)[C@@H](N)CC(C)C)[C@@H](C)O)C(=O)N[C@@H](C)C(=O)N1CCC[C@H]1C(=O)N[C@@H](Cc1ccccc1)C(=O)O` [3102.0825] (H-LAKKTLAPF-OH), the midpoint of inhibition, the IC50, lay at 2.1 nM.

Turning to `CC[C@H](C)[C@H](NC(=O)[C@@H](NC(=O)[C@@H](N)Cc1ccccc1)[C@@H](C)CC)C(=O)N[C@@H](CCCCN)C(=O)N[C@@H](CO)C(=O)N[C@@H](CO)C(=O)N[C@@H](Cc1ccc(O)cc1)C(=O)N[C@H](C(=O)N[C@@H](Cc1ccccc1)C(=O)O)C(C)C` [3102.0827] (H-FIIKSSYVF-OH), inhibition was half-maximal at 3.2 nM (IC50).

As to `CC[C@H](C)[C@H](NC(=O)[C@H](Cc1ccc(O)cc1)NC(=O)[C@H](CCSC)NC(=O)[C@@H](N)CC(C)C)C(=O)N[C@@H](CC(C)C)C(=O)NCC(=O)N[C@H](C(=O)N[C@@H](Cc1ccc(O)cc1)C(=O)NCC(=O)O)[C@@H](C)O` [3102.0828] (H-LMYILGTYG-OH), the half-inhibitory concentration (IC50) is 62 nM. The same measure for `CC[C@H](C)[C@H](NC(=O)[C@@H](NC(=O)[C@@H](NC(=O)[C@H](C)NC(=O)[C@H](CCSC)NC(=O)[C@@H](N)Cc1ccc(O)cc1)[C@@H](C)O)[C@@H](C)O)C(=O)N[C@@H](CC(C)C)C(=O)N[C@@H](CCC(=O)O)C(=O)N[C@@H](CCSC)C(=O)O` [3102.0830] (H-YMATTILEM-OH): 2.2 nM; for `CSCC[C@H](NC(=O)[C@@H](NC(=O)[C@H](CCC(=O)O)NC(=O)[C@H](CCSC)NC(=O)[C@H](CC(C)C)NC(=O)[C@H](CCSC)NC(=O)[C@H](Cc1ccccc1)NC(=O)[C@@H](NC(=O)[C@H](C)N)C(C)C)[C@@H](C)O)C(=O)O` [3102.0831] (H-AVFMLMETM-OH): 26 nM; for `CC(C)C[C@H](NC(=O)[C@H](Cc1c[nH]cn1)NC(=O)[C@@H](NC(=O)[C@H](Cc1ccccc1)NC(=O)[C@H](Cc1ccc(O)cc1)NC(=O)[C@H](CS)NC(=O)[C@H](Cc1ccc(O)cc1)NC(=O)[C@H](CC(C)C)NC(=O)CN)[C@@H](C)O)C(=O)O` [3102.0832] (H-GLYCYFTHL-OH): 6.9 nM.

As for `NCCCC[C@H](NC(=O)[C@H](CCCCN)NC(=O)[C@H](CO)NC(=O)[C@@H](N)CCCCN)C(=O)N[C@@H](Cc1ccc(O)cc1)C(=O)N[C@@H](CCC(=O)O)C(=O)NCC(=O)N1CCC[C@H]1C(=O)N[C@@H](Cc1ccccc1)C(=O)O` [3102.0833] (H-KSKKYEGPF-OH), the IC50 was found to be 1.9 nM.

`CSCC[C@H](NC(=O)[C@@H](N)CC(C)C)C(=O)N[C@@H](CC(N)=O)C(=O)N[C@@H](CC(N)=O)C(=O)N[C@@H](CC(C)C)C(=O)N[C@@H](CC(=O)O)C(=O)N[C@H](C(=O)N[C@@H](CC(C)C)C(=O)N[C@@H](Cc1ccccc1)C(=O)O)[C@@H](C)O` [3102.0836] (H-LMNNLDTLF-OH): inhibition was half-maximal at 86 nM (IC50). `CC[C@H](C)[C@H](NC(=O)[C@H](CO)NC(=O)[C@@H](NC(=O)[C@H](CS)NC(=O)[C@@H](NC(=O)[C@H](CO)NC(=O)[C@H](CCCNC(=N)N)NC(=O)[C@H](CCSC)NC(=O)[C@@H](N)CC(C)C)[C@@H](C)CC)C(C)C)C(=O)O` [3102.0838] (H-LMRSICVSI-OH): the half-maximal inhibitory concentration (IC50) amounted to 63 nM.

`CSCC[C@H](N)C(=O)N[C@@H](CCC(=O)O)C(=O)N[C@@H](CCCNC(=N)N)C(=O)N[C@@H](Cc1ccccc1)C(=O)N[C@@H](CC(N)=O)C(=O)N[C@@H](CS)C(=O)N[C@@H](CO)C(=O)N[C@@H](CO)C(=O)N[C@@H](Cc1ccccc1)C(=O)O` [3102.0839] (H-MERFNCSSF-OH) returned an IC50 of 1.6 nM. The compound `CC(C)C[C@H](N)C(=O)N[C@@H](CO)C(=O)N[C@@H](CCCNC(=N)N)C(=O)N[C@H](C(=O)N[C@@H](Cc1ccccc1)C(=O)N[C@@H](Cc1ccccc1)C(=O)N[C@@H](CS)C(=O)N[C@H](C(=O)N[C@@H](Cc1ccc(O)cc1)C(=O)O)C(C)C)C(C)C` [3102.0840] (H-LSRVFFCVY-OH) came in with an IC50 of 2.9 nM.

`CSCC[C@H](NC(=O)[C@H](Cc1c[nH]cn1)NC(=O)[C@@H]1CCCN1C(=O)[C@H](CC(C)C)NC(=O)[C@H](Cc1ccccc1)NC(=O)[C@H](CC(N)=O)NC(=O)[C@H](Cc1c[nH]cn1)NC(=O)[C@H](CC(C)C)NC(=O)[C@@H](N)CCSC)C(=O)O` [3102.0846] (H-MLHNFLPHM-OH) returned an IC50 of 41 nM. Turning to `CC(C)C[C@H](NC(=O)[C@@H]1CCCN1C(=O)[C@H](CCCNC(=N)N)NC(=O)[C@H](Cc1ccc(O)cc1)NC(=O)[C@H](Cc1ccccc1)NC(=O)[C@@H](NC(=O)CN)C(C)C)C(=O)N[C@@H](Cc1c[nH]cn1)C(=O)N[C@@H](Cc1ccccc1)C(=O)O` [3102.0847] (H-GVFYRPLHF-OH), the concentration for half-maximal inhibition (IC50) came to 5.5 nM.

The compound `CC[C@H](C)[C@H](NC(=O)[C@H](CS)NC(=O)[C@H](CO)NC(=O)[C@@H](NC(=O)[C@H](CS)NC(=O)[C@H](CO)NC(=O)[C@H](CCSC)NC(=O)[C@@H](N)CCSC)[C@@H](C)CC)C(=O)N[C@@H](Cc1ccccc1)C(=O)O` [3102.0850] (H-MMSCISCIF-OH) displayed a concentration for half-maximal inhibition (IC50) of 7.6 nM. Consider `CC[C@H](C)[C@H](NC(=O)[C@@H](N)CCCCN)C(=O)N[C@@H](CCCCN)C(=O)N[C@@H](Cc1c[nH]cn1)C(=O)N[C@@H](CCCCN)C(=O)NCC(=O)N[C@@H](CCSC)C(=O)N[C@@H](CO)C(=O)N[C@@H](Cc1ccccc1)C(=O)O` [3102.0851] (H-KIKHKGMSF-OH), for which the IC50 turned out to be 47 nM. For the compound `CC[C@H](C)[C@H](NC(=O)CNC(=O)[C@@H](N)CO)C(=O)NCC(=O)N[C@H](C(=O)N[C@@H](Cc1ccccc1)C(=O)N[C@@H](CC(C)C)C(=O)N[C@@H](Cc1c[nH]cn1)C(=O)N[C@@H](Cc1ccc(O)cc1)C(=O)O)[C@@H](C)O` [3102.0852] (H-SGIGTFLHY-OH), the IC50 was 23 nM. With `CC[C@H](C)[C@H](NC(=O)[C@@H](N)CO)C(=O)N[C@@H](CS)C(=O)N[C@@H](CO)C(=O)N[C@@H](CCCCN)C(=O)N[C@@H](CO)C(=O)N[C@@H](CC(N)=O)C(=O)N1CCC[C@H]1C(=O)N[C@@H](Cc1ccccc1)C(=O)O` [3102.0855] (H-SICSKSNPF-OH), the IC50 came to 39 nM.

In turn, `CSCC[C@H](NC(=O)[C@H](CCCCN)NC(=O)[C@H](CCCCN)NC(=O)[C@H](Cc1ccc(O)cc1)NC(=O)[C@@H](NC(=O)[C@@H](N)CC(C)C)C(C)C)C(=O)N[C@@H](CCC(N)=O)C(=O)N[C@@H](CO)C(=O)N[C@@H](Cc1ccc(O)cc1)C(=O)O` [3102.0856] (H-LVYKKMQSY-OH) gave a concentration for half-maximal inhibition (IC50) of 46 nM. In turn, `CC[C@H](C)[C@H](NC(=O)[C@H](CS)NC(=O)[C@H](CCCNC(=N)N)NC(=O)[C@H](Cc1c[nH]cn1)NC(=O)[C@H](CC(C)C)NC(=O)[C@@H](N)CC(C)C)C(=O)N[C@@H](Cc1ccc(O)cc1)C(=O)N[C@@H](Cc1c[nH]cn1)C(=O)N[C@@H](Cc1ccc(O)cc1)C(=O)O` [3102.0866] (H-LLHRCIYHY-OH) registered a half-inhibitory concentration (IC50) of 43 nM. The same measure for `CC[C@H](C)[C@H](N)C(=O)N[C@@H](CO)C(=O)N[C@H](C(=O)N[C@@H](CCCCN)C(=O)N[C@@H](CC(C)C)C(=O)N[C@@H](CO)C(=O)N[C@@H](CS)C(=O)N[C@@H](Cc1c[nH]cn1)C(=O)N[C@@H](Cc1ccc(O)cc1)C(=O)O)[C@@H](C)O` [3102.0872] (H-ISTKLSCHY-OH): 18 nM.
